Test results published in PubChem BioAssay AID2060893 (Molecular Pharmacology Branch, DTP, NCI, 2025).

Test system: K86415-001-R-J1-PDC complex spheroids, viability
Assay: Anticancer human tumor K86415-001-R-J1-PDC patient-derived lung adenocarcinoma cell line growth inhibition [RAS]
Conditions: for IC50: curve of first compound; for viability, T/C: stronger effect = lower value
In short: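 Agents were tested in combination matrices in half-log decrements from a top concentration at or near clinical Cmax (10 microM if undetermined). Targets were multi-cell spheroids of tumour lines plus HUVEC and MSC stromal cells.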

[1] = second compound 0.000949 µM, first compound 0.00316 µM
[2] = second compound 0.000949 µM, first compound 0.01 µM
[3] = second compound 0.000949 µM, first compound 0.0316 µM
[4] = second compound 0.000949 µM, first compound 0.1 µM
[5] = second compound 0.003 µM, first compound 0.00316 µM
[6] = second compound 0.003 µM, first compound 0.01 µM
[7] = second compound 0.003 µM, first compound 0.0316 µM
[8] = second compound 0.003 µM, first compound 0.1 µM
[9] = second compound 0.00949 µM, first compound 0.00316 µM
[10] = second compound 0.00949 µM, first compound 0.01 µM
[11] = second compound 0.00949 µM, first compound 0.0316 µM
[12] = second compound 0.00949 µM, first compound 0.1 µM
[13] = second compound 0.03 µM, first compound 0.00316 µM
[14] = second compound 0.03 µM, first compound 0.01 µM
[15] = second compound 0.03 µM, first compound 0.0316 µM
[16] = second compound 0.03 µM, first compound 0.1 µM
[17] = second compound 0.0949 µM, first compound 0.00316 µM
[18] = second compound 0.0949 µM, first compound 0.01 µM
[19] = second compound 0.0949 µM, first compound 0.0316 µM
[20] = second compound 0.0949 µM, first compound 0.1 µM
[21] = second compound 0.3 µM, first compound 0.00316 µM
[22] = second compound 0.3 µM, first compound 0.01 µM
[23] = second compound 0.3 µM, first compound 0.0316 µM
[24] = second compound 0.3 µM, first compound 0.1 µM
[25] = second compound 0.000949 µM, first compound 0.316 µM
[26] = second compound 0.000949 µM, first compound 1 µM
[27] = second compound 0.000949 µM, first compound 3.16 µM
[28] = second compound 0.000949 µM, first compound 10 µM
[29] = second compound 0.003 µM, first compound 0.316 µM
[30] = second compound 0.003 µM, first compound 1 µM
[31] = second compound 0.003 µM, first compound 3.16 µM
[32] = second compound 0.003 µM, first compound 10 µM
[33] = second compound 0.00949 µM, first compound 0.316 µM
[34] = second compound 0.00949 µM, first compound 1 µM
[35] = second compound 0.00949 µM, first compound 3.16 µM
[36] = second compound 0.00949 µM, first compound 10 µM
[37] = second compound 0.03 µM, first compound 0.316 µM
[38] = second compound 0.03 µM, first compound 1 µM
[39] = second compound 0.03 µM, first compound 3.16 µM
[40] = second compound 0.03 µM, first compound 10 µM
[41] = second compound 0.0949 µM, first compound 0.316 µM
[42] = second compound 0.0949 µM, first compound 1 µM
[43] = second compound 0.0949 µM, first compound 3.16 µM
[44] = second compound 0.0949 µM, first compound 10 µM
[45] = second compound 0.3 µM, first compound 0.316 µM
[46] = second compound 0.3 µM, first compound 1 µM
[47] = second compound 0.3 µM, first compound 3.16 µM
[48] = second compound 0.3 µM, first compound 10 µM
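Further: spheroids exposed to agents for seven days before readout.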

## CC(C)n1nc(-c2ccc3oc(N)nc3c2)c2c(N)ncnc21 + CCn1c(-c2cc(N3CCN(C)CC3)cnc2C(C)OC)c2c3cc(ccc31)-c1csc(n1)CC(NC(=O)C1CC1C)C(=O)N1CCCC(N1)C(=O)OCC(C)(C)C2
Second compound 0.000949 µM
  IC50: < 0.316 nM
Second compound 0.003 µM
  IC50: < 0.316 nM
Second compound 0.00949 µM
  IC50: < 0.316 nM
Second compound 0.03 µM
  IC50: < 0.316 nM
Second compound 0.0949 µM
  IC50: < 0.316 nM
Second compound 0.3 µM
  IC50: < 0.316 nM
Second compound 0.000949 µM, first compound 0.000316 µM
  viability, T/C: 46.4%
Second compound 0.000949 µM, first compound 0.001 µM
  viability, T/C: 46.7%
[1]
  viability, T/C: 39.5%
[2]
  viability, T/C: 43.9%
[3]
  viability, T/C: 35.4%
[4]
  viability, T/C: 20.4%
Second compound 0.003 µM, first compound 0.000316 µM
  viability, T/C: 23.1%
Second compound 0.003 µM, first compound 0.001 µM
  viability, T/C: 17.4%
[5]
  viability, T/C: 18.4%
[6]
  viability, T/C: 16.3%
[7]
  viability, T/C: 23.8%
[8]
  viability, T/C: 7.47%
Second compound 0.00949 µM, first compound 0.000316 µM
  viability, T/C: 11.5%
Second compound 0.00949 µM, first compound 0.001 µM
  viability, T/C: 9.33%
[9]
  viability, T/C: 9.17%
[10]
  viability, T/C: 8.21%
[11]
  viability, T/C: 3.17%
[12]
  viability, T/C: 2.45%
Second compound 0.03 µM, first compound 0.000316 µM
  viability, T/C: 5.52%
Second compound 0.03 µM, first compound 0.001 µM
  viability, T/C: 4.5%
[13]
  viability, T/C: 3.7%
[14]
  viability, T/C: 2.13%
[15]
  viability, T/C: 0.97%
[16]
  viability, T/C: 1.14%
Second compound 0.0949 µM, first compound 0.000316 µM
  viability, T/C: 3.75%
Second compound 0.0949 µM, first compound 0.001 µM
  viability, T/C: 3.4%
[17]
  viability, T/C: 2.07%
[18]
  viability, T/C: 1.07%
[19]
  viability, T/C: 0.49%
[20]
  viability, T/C: 0.77%
Second compound 0.3 µM, first compound 0.000316 µM
  viability, T/C: 2.48%
Second compound 0.3 µM, first compound 0.001 µM
  viability, T/C: 2.57%
[21]
  viability, T/C: 2.13%
[22]
  viability, T/C: 0.8%
[23]
  viability, T/C: 0.57%
[24]
  viability, T/C: 0.8%

## CC1(O)CCCC1n1c(=O)c(C(F)F)cc2cnc(NC3CCN(S(C)(=O)=O)CC3)nc21 (stereo not drawn) + CCn1c(-c2cc(N3CCN(C)CC3)cnc2C(C)OC)c2c3cc(ccc31)-c1csc(n1)CC(NC(=O)C1CC1C)C(=O)N1CCCC(N1)C(=O)OCC(C)(C)C2
Second compound 0.000949 µM
  IC50: 31.6 nM
Second compound 0.003 µM
  IC50: < 31.6 nM
Second compound 0.00949 µM
  IC50: < 31.6 nM
Second compound 0.03 µM
  IC50: < 31.6 nM
Second compound 0.0949 µM
  IC50: < 31.6 nM
Second compound 0.3 µM
  IC50: < 31.6 nM
[3]
  viability, T/C: 41.9%
[4]
  viability, T/C: 36.9%
[25]
  viability, T/C: 36.7%
[26]
  viability, T/C: 47%
[27]
  viability, T/C: 57.5%
[28]
  viability, T/C: 4.99%
[7]
  viability, T/C: 18.4%
[8]
  viability, T/C: 19.2%
[29]
  viability, T/C: 20%
[30]
  viability, T/C: 23.5%
[31]
  viability, T/C: 43%
[32]
  viability, T/C: 4.43%
[11]
  viability, T/C: 10.9%
[12]
  viability, T/C: 8.83%
[33]
  viability, T/C: 10.7%
[34]
  viability, T/C: 11.5%
[35]
  viability, T/C: 20.2%
[36]
  viability, T/C: 5.31%
[15]
  viability, T/C: 6.62%
[16]
  viability, T/C: 6.19%
[37]
  viability, T/C: 6.48%
[38]
  viability, T/C: 10.7%
[39]
  viability, T/C: 12.3%
[40]
  viability, T/C: 4.06%
[19]
  viability, T/C: 4.05%
[20]
  viability, T/C: 4.63%
[41]
  viability, T/C: 4.78%
[42]
  viability, T/C: 5.15%
[43]
  viability, T/C: 6.85%
[44]
  viability, T/C: 5.2%
[23]
  viability, T/C: 3.61%
[24]
  viability, T/C: 5.05%
[45]
  viability, T/C: 4.72%
[46]
  viability, T/C: 5.49%
[47]
  viability, T/C: 7.45%
[48]
  viability, T/C: 4.66%

## CCN1CCN(Cc2ccc(Nc3ncc(F)c(-c4cc(F)c5nc(C)n(C(C)C)c5c4)n3)nc2)CC1 + CCn1c(-c2cc(N3CCN(C)CC3)cnc2C(C)OC)c2c3cc(ccc31)-c1csc(n1)CC(NC(=O)C1CC1C)C(=O)N1CCCC(N1)C(=O)OCC(C)(C)C2
Second compound 0.000949 µM
  IC50: < 3.16 nM
Second compound 0.003 µM
  IC50: < 3.16 nM
Second compound 0.00949 µM
  IC50: < 3.16 nM
Second compound 0.03 µM
  IC50: < 3.16 nM
Second compound 0.0949 µM
  IC50: < 3.16 nM
Second compound 0.3 µM
  IC50: < 3.16 nM
[1]
  viability, T/C: 47.9%
[2]
  viability, T/C: 40.1%
[3]
  viability, T/C: 34.3%
[4]
  viability, T/C: 34.2%
[25]
  viability, T/C: 35.9%
[26]
  viability, T/C: 40.8%
[5]
  viability, T/C: 21.5%
[6]
  viability, T/C: 17.4%
[7]
  viability, T/C: 17.5%
[8]
  viability, T/C: 19.1%
[29]
  viability, T/C: 26.6%
[30]
  viability, T/C: 23.5%
[9]
  viability, T/C: 12.5%
[10]
  viability, T/C: 10.9%
[11]
  viability, T/C: 10.3%
[12]
  viability, T/C: 11.9%
[33]
  viability, T/C: 10.6%
[34]
  viability, T/C: 8.22%
[13]
  viability, T/C: 5.68%
[14]
  viability, T/C: 6.29%
[15]
  viability, T/C: 3.09%
[16]
  viability, T/C: 5.81%
[37]
  viability, T/C: 4.33%
[38]
  viability, T/C: 3.19%
[17]
  viability, T/C: 3.17%
[18]
  viability, T/C: 3.79%
[19]
  viability, T/C: 3.86%
[20]
  viability, T/C: 3.09%
[41]
  viability, T/C: 2.31%
[42]
  viability, T/C: 1.64%
[21]
  viability, T/C: 2.92%
[22]
  viability, T/C: 3.03%
[23]
  viability, T/C: 2.27%
[24]
  viability, T/C: 1.73%
[45]
  viability, T/C: 1.63%
[46]
  viability, T/C: 1.66%

## C[C@@H](NC(=O)c1ncnc(N)c1Cl)c1ncc(C(=O)Nc2cc(C(F)(F)F)c(Cl)cn2)s1 + CCn1c(-c2cc(N3CCN(C)CC3)cnc2C(C)OC)c2c3cc(ccc31)-c1csc(n1)CC(NC(=O)C1CC1C)C(=O)N1CCCC(N1)C(=O)OCC(C)(C)C2
Second compound 0.000949 µM
  IC50: 4280 nM
Second compound 0.003 µM
  IC50: < 31.6 nM
Second compound 0.00949 µM
  IC50: < 31.6 nM
Second compound 0.03 µM
  IC50: < 31.6 nM
Second compound 0.0949 µM
  IC50: < 31.6 nM
Second compound 0.3 µM
  IC50: < 31.6 nM
[3]
  viability, T/C: 58.2%
[4]
  viability, T/C: 62.2%
[25]
  viability, T/C: 53.7%
[26]
  viability, T/C: 62.2%
[27]
  viability, T/C: 57.1%
[28]
  viability, T/C: 29.1%
[7]
  viability, T/C: 34.8%
[8]
  viability, T/C: 27.6%
[29]
  viability, T/C: 32.1%
[30]
  viability, T/C: 38.1%
[31]
  viability, T/C: 33.4%
[32]
  viability, T/C: 21.7%
[11]
  viability, T/C: 12.9%
[12]
  viability, T/C: 11.8%
[33]
  viability, T/C: 11.9%
[34]
  viability, T/C: 16.6%
[35]
  viability, T/C: 15.4%
[36]
  viability, T/C: 11.6%
[15]
  viability, T/C: 6.75%
[16]
  viability, T/C: 8.74%
[37]
  viability, T/C: 8.31%
[38]
  viability, T/C: 8.07%
[39]
  viability, T/C: 8.51%
[40]
  viability, T/C: 7.57%
[19]
  viability, T/C: 5.52%
[20]
  viability, T/C: 4.87%
[41]
  viability, T/C: 4.23%
[42]
  viability, T/C: 4.04%
[43]
  viability, T/C: 4.24%
[44]
  viability, T/C: 4.39%
[23]
  viability, T/C: 3.5%
[24]
  viability, T/C: 3.03%
[45]
  viability, T/C: 4.17%
[46]
  viability, T/C: 3.4%
[47]
  viability, T/C: 4.53%
[48]
  viability, T/C: 4.26%
